Columns and labels:
[1] = system: primary murine fibroblasts overexpressing EYA1A; assay: Proliferative activity of primary murine fibroblasts overexpressing EYA1A; assay type: cell-based, mouse; details: seeded at 60,000 per well
Description: FIGS. 12A-12B show the effect of the established EYA1 γH2A.X^[…] tyrosine phosphatase inhibitors Na3VO4 (blocking tyrosine phosphatase activity) and caffeine (blocking ATM-dependent recruitment of EYA1 towards γH2A.X) on γH2A.X^[…] dephosphorylation and fibroblast accumulation. FIG. 12A depicts results of an analysis of photomicrographs of primary murine fibroblast cultures transfected with control plasmids (vector) and plasmids overexpressing […]) or EYA1C (EYA1C^oe). […] FIG. 12B depicts results of an analysis of proliferative activity of primary murine fibroblasts transfected with indicated constructs, seeded at a density of 60,000 per well.

[2] = system: EYA1A^tg mice challenged with UUO; assay: Unilateral ureteral obstruction (UUO) kidney fibrosis in EYA1A^tg mice; assay type: in vivo, mouse; details: Na3VO4 8 mg/kg or caffeine 12.5 mg/kg i.p. once per day; EYA1Atg mice, UUO
Procedure: From 3 days before surgery, C57BL/6 (referred as wildtype) or transgenic mice overexpressing human splice variants EYA1A (rtTACMV;hEYA1A-pTreTight, referred to as EYA1A^tg) and EYA1C (rtTACMV;hEYA1C-pTreTight, referred to as EYA1C^tg) were treated with either vehicle buffer (glucose 5%) or DOX (2 mg/ml, Sigma, St. Louis, USA) within drinking water ad libidum and renewal every 2 days.
Mice were anesthetized with isoflurane inhalation (2-3%), analgesia was performed by subcutaneous injection of 0.1 mg/kg body weight per day Buprenorphine. The ureter was separated from the surrounding tissues and two ligatures were placed about 5 mm apart in upper two-thirds of the left ureter to obtain reliable obstruction. Mice were sacrificed 3, 7 or 10 days after ureteral obstruction for further analyses.
Mice were injected intraperitoneally with Na3VO4 (8 mg/kg i.p. once per day, Sigma, St. Louis, USA) or caffeine (12.5 mg/kg i.p. once per day, Sigma, St. Louis, USA) starting one day prior of surgery, control mice received equivalent volume of PBS or DMSO.
Mice were injected intraperitoneally with SCR7 (20 mg/kg i.p. every alternate day, Sigma, St. Louis, USA) starting one day prior of surgery, control mice received equivalent volume of DMSO.
The inventors obtained 25 nucleotide antisense morpholino sequences (Gene Tools, Philomath, USA). The in vivo morpholinos contain a covalently linked octaguanidine dendrimer as a delivery moiety to facilitate entry into cells in vivo. Mice were injected intraperitoneally with 12.5 mg/kg body weight in vivo morpholinos in saline at a final volume of 100 μL every other day starting two days prior of surgery. A control in vivo
Lentiviral pLenti-Sce1 was produced in 293T virus packaging cells after transfection using morpholino that targets a human β-globin intron mutation was used as standard control. In vivo morpholino sequences are those of SEQ ID NOs: 9 (EYA1A-VMO), 10 (53Bp1-VMO) and 16 (control).
Formalin-fixed, paraffin-embedded kidneys and hearts from mice, and HOPE-fixed, paraffin-embedded human specimens were sectioned at 3 μm, Masson's Trichrome Stain (MTS) was performed at the University Medicine Göttingen. For morphometric analysis of interstitial fibrosis in mice and human biopsies, we assessed the fibrotic area using cellSens (Olympus, Tokyo, Japan) software. Ten visual fields were selected randomly for each MTS stained section at 200× magnification and the relative interstitial fibrotic area was evaluated by using a 10 mm^2 graticule.
Formalin-fixed, paraffin-embedded kidney sections from mice as well as from HOPE-fixed, paraffin-embedded human specimens were deparaffinized in xylene and rehydrated in ethanol containing distilled water. For immunofluorescent staining, EYA1 isoform antisera or primary antibodies against αSMA (A5228, Sigma, St. Louis, USA), Collagen-1 (ab34710, Abcam Biochemicals, Cambridge, UK), γH2A.X^pS139 (ab2893, Abcam Biochemicals, Cambridge, UK), γH2A.X^pS139 (05-636, Merck Millipore, Billerica, UK), γH2A.X^pY142 (ab94602, Abcam Biochemicals, Cambridge, UK), p-Chk1^pS317 (12302P, Cell Signaling, Danvers, USA), p-Chk2^pT68 (2197S, Cell Signaling, Danvers, USA), Rpa1 (2267S, Cell Signaling, Danvers, USA), Rad51 (sc-8349, Santa Cruz Biotechnology, Dallas, USA), 53Bp1 (sc-22760, Santa Cruz Biotechnology, Dallas, USA), Xrcc4 (sc-8285, Santa Cruz Biotechnology, Dallas, USA) and GFP (MA5-15256, Thermo Fisher Scientific, Waltham, USA) were used, secondary antibodies were labeled with Alexa Fluor 488, 594 or 647 (Life Technologies, Carlsbad, USA). Renal basement membranes were stained with antibodies against Collagen-4 (1340-30, SouthernBiotech, Birmingham, USA). Nuclear staining was performed using 4′,6-diamidino-2-phenylindole (DAPI, Vector Laboratories, Burlingame, USA). Quantifications were performed per high power field at 400× magnification, representative confocal pictures using an LSM 780 confocal laser scanning microscope (Zeiss, Oberkochen, Germany) are shown.

## [Na+].[Na+].[Na+].[O]=[V]([O-])([O-])[O-] [Na3VO4, sodium orthovanadate]
[1]
  EYA1A-induced fibroblast accumulation: reversed
[2]
  impact of EYA1A overexpression on renal fibrogenesis: reversed the enhancing impact
  γH2A.X^pY142 dephosphorylation: effectively blocked

## Cn1c(=O)c2c(ncn2C)n(C)c1=O [caffeine]
[1]
  EYA1A-induced fibroblast accumulation: reversed
[2]
  impact of EYA1A overexpression on renal fibrogenesis: reversed the enhancing impact
  γH2A.X^pY142 dephosphorylation: effectively blocked

— patent publication US11331333B2, “Treatment of aberrant fibroblast proliferation” (Georg August Universitaet Goettingen Stiftung Oeffentlichen …, priority 2019, dated 2022)
